Experimental data from patent publication US3994885A, “Process for etherifying β-lactam antibiotics” (Eli Lilly and Company, priority 1975, dated 1976).
≈ marks a conversion by molar mass, not a printed value.

Assays:
Shigella sp. = assay: Gradient Plate MIC vs gram-negative microorganisms
Escherichia coli [1] = assay: Gradient Plate MIC vs gram-negative microorganisms
Klebsiella pneumoniae [2] = assay: Gradient Plate MIC vs gram-negative microorganisms
Aerobacter aerogenes = assay: Gradient Plate MIC vs gram-negative microorganisms; conditions: Klebsiella aerogenes
Salmonella heidelberg = assay: Gradient Plate MIC vs gram-negative microorganisms; conditions: Salmonella enterica
Pseudomonas aeruginosa = assay: Gradient Plate MIC vs gram-negative microorganisms
Serratia marcescens [3] = assay: Gradient Plate MIC vs gram-negative microorganisms
[4] = test system: Penicillin Resistant Staphylococcus aureus V41; assay: Gradient Plate MIC vs penicillin resistant Staphylococcus aureus, isolate V41
[5] = test system: Penicillin Resistant Staphylococcus aureus V32; assay: Gradient Plate MIC vs penicillin resistant Staphylococcus aureus, isolate V32
[6] = test system: Penicillin Resistant Staphylococcus aureus V84; assay: Gradient Plate MIC vs penicillin resistant Staphylococcus aureus, isolate V84
[7] = test system: Penicillin Resistant Staphylococcus aureus X400; assay: Gradient Plate MIC vs penicillin resistant Staphylococcus aureus, isolate X400
[8] = test system: Penicillin Resistant Staphylococcus aureus X1.1; assay: Gradient Plate MIC vs penicillin resistant Staphylococcus aureus, isolate X1.1
Staphylococcus aureus = assay: In vitro antibiotic spectrum, disc-plate method; assay type: cell-based; conditions: read-out: Diameter of Zone of Inhibition; for zone of inhibition at 500 µg/mL: concentration 0.5 mg/ml
Bacillus subtilis = assay: In vitro antibiotic spectrum, disc-plate method; assay type: cell-based; conditions: read-out: Diameter of Zone of Inhibition; for zone of inhibition at 500 µg/mL: concentration 0.5 mg/ml (ditto)
Sarcina lutea = assay: In vitro antibiotic spectrum, disc-plate method; assay type: cell-based; conditions: Micrococcus luteus, read-out: Diameter of Zone of Inhibition; for zone of inhibition at 500 µg/mL: concentration 0.5 mg/ml (ditto)
Mycobacterium avium = assay: In vitro antibiotic spectrum, disc-plate method; assay type: cell-based; conditions: read-out: Diameter of Zone of Inhibition
Proteus vulgaris = assay: In vitro antibiotic spectrum, disc-plate method; assay type: cell-based; conditions: read-out: Diameter of Zone of Inhibition; for zone of inhibition at 500 µg/mL: concentration 0.5 mg/ml
Salmonella gallinarum = assay: In vitro antibiotic spectrum, disc-plate method; assay type: cell-based; conditions: Salmonella enterica, read-out: Diameter of Zone of Inhibition; for zone of inhibition at 500 µg/mL: concentration 0.5 mg/ml (ditto)
From the text: In the following Table III the antibiotic activity of the compounds of the invention is further illustrated by the activity shown for representative compounds as determined by the standard disc-plate method.

Escherichia coli [9] = assay: In vitro antibiotic spectrum, disc-plate method; assay type: cell-based; conditions: read-out: Diameter of Zone of Inhibition; for zone of inhibition at 500 µg/mL: concentration 0.5 mg/ml (ditto)
Klebsiella pneumoniae [10] = assay: In vitro antibiotic spectrum, disc-plate method; assay type: cell-based; conditions: read-out: Diameter of Zone of Inhibition; for zone of inhibition at 500 µg/mL: concentration 0.5 mg/ml (ditto)
Serratia marcescens [11] = assay: In vitro antibiotic spectrum, disc-plate method; assay type: cell-based; conditions: read-out: Diameter of Zone of Inhibition; for zone of inhibition at 500 µg/mL: concentration 0.5 mg/ml (ditto)
Pseudomonas solanacearum = assay: microbe, parasite or virus in culture; assay type: cell-based; conditions: Ralstonia solanacearum, read-out: Diameter of Zone of Inhibition
[12] = concentration 0.1 mg/ml (ditto)

| SMILES | MIC (Shigella sp.) | MIC (Escherichia coli [1]) | MIC (Klebsiella pneumoniae [2]) | MIC (Aerobacter aerogenes) | MIC (Salmonella heidelberg) | MIC (Pseudomonas aeruginosa) | MIC (Serratia marcescens [3]) | MIC ([4]; NS = absence of serum) | MIC ([4]; S = presence of serum) | MIC ([5]; NS = absence of serum) | MIC ([5]; S = presence of serum) | MIC ([6]; NS = absence of serum) | MIC ([6]; S = presence of serum) | MIC ([7]; NS = absence of serum) | MIC ([7]; S = presence of serum) | MIC ([8]; NS = absence of serum) | MIC ([8]; S = presence of serum) | zone of inhibition at 500 µg/mL (Staphylococcus aureus) | zone of inhibition at 500 µg/mL (Bacillus subtilis) | zone of inhibition at 500 µg/mL (Sarcina lutea) | further results |
| --- | --- | --- | --- | --- | --- | --- | --- | --- | --- | --- | --- | --- | --- | --- | --- | --- | --- | --- | --- | --- | --- |
| COC1(NC(=O)C(O)c2ccccc2)C(=O)N2C(C(=O)O)=C(CSc3nnnn3C)CS[C@@H]21 (stereo partly shown) [A, 7-methoxy-7-mandelamido-3-(1-methyl-1H-tetrazole-5-ylthiomethyl)-3-cephem-4-carboxylic acid] | 2 µg/mL (≈ 4.06 µM) | 2.5 µg/mL (≈ 5.08 µM) | 0.6 µg/mL (≈ 1.22 µM) | 0.7 µg/mL (≈ 1.42 µM) | 0.6 µg/mL (≈ 1.22 µM) | > 200 µg/mL | 3.4 µg/mL (≈ 6.9 µM) | 4.2 µg/mL (≈ 8.53 µM) | 6.7 µg/mL | 4.5 µg/mL (≈ 9.14 µM) | 7.6 µg/mL | 3.1 µg/mL (≈ 6.29 µM) | 2 µg/mL | 16.6 µg/mL (≈ 33.7 µM) | 15.4 µg/mL | 0.5 µg/mL (≈ 1.02 µM) | < 0.1 µg/mL |  |  |  |  |
| COC1(NC(=O)Cc2cccs2)C(=O)N2C(C(=O)O)=C(CSc3nnnn3C)CS[C@@H]21 (stereo partly shown) [B, 7-methoxy-7-[2-(2-thienyl)acetamido]-3-(1-methyl-1H-tetrazol-5-ylthiomethyl)-3-cephem-4-carboxylic acid] | 6.6 µg/mL (≈ 13.7 µM) | 7.9 µg/mL (≈ 16.4 µM) | 0.5 µg/mL (≈ 1.04 µM) | 3.5 µg/mL (≈ 7.25 µM) | 0.9 µg/mL (≈ 1.87 µM) | > 200 µg/mL | 5.4 µg/mL (≈ 11.2 µM) | 1.5 µg/mL (≈ 3.11 µM) | 1.1 µg/mL | 1.8 µg/mL (≈ 3.73 µM) | 2 µg/mL | 0.6 µg/mL (≈ 1.24 µM) | 1 µg/mL | 10 µg/mL (≈ 20.7 µM) | 9.5 µg/mL | 0.4 µg/mL (≈ 0.829 µM) | 0.5 µg/mL |  |  |  |  |
| COC1(NC(=O)Cn2cnnn2)C(=O)N2C(C(=O)O)=C(CSc3nnc(C)s3)CS[C@@H]21 (stereo partly shown) [C, 7-[2-(1-tetrazolyl)acetamido]-7-methoxy-3-(5-methyl-1,3,4-thiadiazol-2-ylthiomethyl)-3-cephem-4-carboxylic acid] |  |  |  |  |  |  |  |  |  |  |  |  |  |  |  |  |  | 24 mm | 25 mm | 23 mm | zone of inhibition at 500 µg/mL (Mycobacterium avium; concentration 0.5 mg/ml (ditto)): 10 mm; zone of inhibition at 500 µg/mL (Proteus vulgaris): 21 mm; zone of inhibition at 500 µg/mL (Salmonella gallinarum): 26 mm; zone of inhibition at 500 µg/mL (Escherichia coli [9]): 23 mm; zone of inhibition at 500 µg/mL (Klebsiella pneumoniae [10]): 19 mm; zone of inhibition at 500 µg/mL (Serratia marcescens [11]): 19 mm; zone of inhibition at 500 µg/mL (Pseudomonas solanacearum): 16 mm |
| COC1(NC(=O)Cn2cnnn2)C(=O)N2C(C(=O)O)=C(COC(C)=O)CSC21 (stereo not shown) [D, 7-[2-(1-Tetrazolyl)acetamido]:7:methoxy-3-acetoxymethyl-3-cephem-4-carboxylic acid] |  |  |  |  |  |  |  |  |  |  |  |  |  |  |  |  |  | 24 mm | 24 mm | 23 mm | zone of inhibition at 5000 µg/mL (Mycobacterium avium; concentration 5.0 mg/ml): 20 mm; zone of inhibition at 500 µg/mL (Proteus vulgaris): 18 mm; zone of inhibition at 500 µg/mL (Salmonella gallinarum): 25 mm; zone of inhibition at 500 µg/mL (Escherichia coli [9]): 20 mm; zone of inhibition at 500 µg/mL (Klebsiella pneumoniae [10]): 17 mm; zone of inhibition at 500 µg/mL (Serratia marcescens [11]): 17 mm; zone of inhibition at 500 µg/mL (Pseudomonas solanacearum): 23 mm |
| COC1(NC(=O)C(O)c2ccccc2)C(=O)N2C(C(=O)O)=C(CSc3nnc(C)s3)CS[C@@H]21 (stereo partly shown) [E, 7-methoxy-7-mandelamido-3-(5-methyl-1,3,4-thiadiazol-2-ylthiomethyl)-3-cephem-4-carboxylic acid] |  |  |  |  |  |  |  |  |  |  |  |  |  |  |  |  |  |  |  |  | zone of inhibition at 100 µg/mL (Staphylococcus aureus; concentration 0.1 mg/ml): 25 mm; zone of inhibition at 100 µg/mL (Bacillus subtilis; [12]): 22 mm; zone of inhibition at 100 µg/mL (Sarcina lutea; [12]): 24 mm; zone of inhibition at 1000 µg/mL (Mycobacterium avium; concentration 1.0 mg/ml): 15 mm; zone of inhibition at 100 µg/mL (Proteus vulgaris; concentration 0.1 mg/ml): 18 mm; zone of inhibition at 1000 µg/mL (Salmonella gallinarum; concentration 1.0 mg/ml): 20 mm; zone of inhibition at 100 µg/mL (Escherichia coli [9]; concentration 0.1 mg/ml): 22 mm; zone of inhibition at 100 µg/mL (Klebsiella pneumoniae [10]; [12]): 16 mm; zone of inhibition at 1000 µg/mL (Serratia marcescens [11]; concentration 1.0 mg/ml): 18 mm; zone of inhibition at 1000 µg/mL (Pseudomonas solanacearum): 16 mm |
